According to ChEMBL document CHEMBL4507279, “Data for DCP probe BI-9627” (2021):

Experiments:
[1] = molecular target: Sodium/hydrogen exchanger 3 (Homo sapiens, UniProt P48764); test: pHi change assay with SLC9A3
[2] = system: Tyrosine-protein kinase ABL1 (Homo sapiens), P00519 [F317I]; details: Compound concentration 1000.0 nM
[3] = system: Tyrosine-protein kinase ABL1 (Homo sapiens), P00519 [Y253F]; details: Compound concentration 1000.0 nM
[4] = molecular target: Tyrosine-protein kinase ABL1 (Homo sapiens) (UniProt P00519); details: Compound concentration 1000.0 nM
[5] = molecular target: Aurora kinase A (Homo sapiens) (UniProt O14965); details: Compound concentration 1000.0 nM
[6] = molecular target: Aurora kinase B (Homo sapiens) (UniProt Q96GD4); details: Compound concentration 1000.0 nM
[7] = molecular target: Mitotic checkpoint serine/threonine-protein kinase BUB1 (Homo sapiens) (UniProt O43683); details: Compound concentration 1000.0 nM
[8] = molecular target: Calcium/calmodulin-dependent protein kinase type 1 (Homo sapiens) (UniProt Q14012); details: Compound concentration 1000.0 nM
[9] = molecular target: Calcium/calmodulin-dependent protein kinase type II subunit alpha (Homo sapiens) (UniProt Q9UQM7); details: Compound concentration 1000.0 nM
[10] = molecular target: Cyclin-dependent kinase 4 (Homo sapiens) (UniProt P11802); details: Compound concentration 1000.0 nM
[11] = molecular target: Tyrosine-protein kinase CSK (Homo sapiens) (UniProt P41240); details: Compound concentration 1000.0 nM
[12] = system: Epidermal growth factor receptor (Homo sapiens), P00533 [G719S]; details: Compound concentration 1000.0 nM
[13] = molecular target: Mitogen-activated protein kinase 7 (Homo sapiens) (UniProt Q13164); details: Compound concentration 1000.0 nM
[14] = system: Receptor-type tyrosine-protein kinase FLT3 (Homo sapiens), P36888 [D835H]; details: Compound concentration 1000.0 nM
[15] = molecular target: Interleukin-1 receptor-associated kinase 1 (Homo sapiens) (UniProt P51617); details: Compound concentration 1000.0 nM
[16] = molecular target: Tyrosine-protein kinase JAK1 (Homo sapiens) (UniProt P23458); details: Compound concentration 1000.0 nM
[17] = molecular target: MAP kinase-activated protein kinase 5 (Homo sapiens) (UniProt Q8IW41); details: Compound concentration 1000.0 nM
[18] = molecular target: Serine/threonine-protein kinase MARK2 (Homo sapiens) (UniProt Q7KZI7); details: Compound concentration 1000.0 nM
[19] = molecular target: Microtubule-associated serine/threonine-protein kinase 1 (Homo sapiens) (UniProt Q9Y2H9); details: Compound concentration 1000.0 nM
[20] = molecular target: Dual specificity mitogen-activated protein kinase kinase 4 (Homo sapiens) (UniProt P45985); details: Compound concentration 1000.0 nM
[21] = molecular target: Mitogen-activated protein kinase kinase kinase 11 (Homo sapiens) (UniProt Q16584); details: Compound concentration 1000.0 nM
[22] = molecular target: Myosin-IIIb (Homo sapiens) (UniProt Q8WXR4); details: Compound concentration 1000.0 nM
[23] = molecular target: Mitogen-activated protein kinase 12 (Homo sapiens) (UniProt P53778); details: Compound concentration 1000.0 nM
[24] = molecular target: Serine/threonine-protein kinase PAK 4 (Homo sapiens) (UniProt O96013); details: Compound concentration 1000.0 nM
[25] = molecular target: Cyclin-dependent kinase 16 (Homo sapiens) (UniProt Q00536); details: Compound concentration 1000.0 nM
[26] = molecular target: 3-phosphoinositide-dependent protein kinase 1 (Homo sapiens) (UniProt O15530); details: Compound concentration 1000.0 nM
[27] = system: Phosphatidylinositol 4,5-bisphosphate 3-kinase catalytic subunit alpha isoform (Homo sapiens), P42336 [H1047Y]; details: Compound concentration 1000.0 nM
[28] = molecular target: Phosphatidylinositol 4,5-bisphosphate 3-kinase catalytic subunit beta isoform (Homo sapiens) (UniProt P42338); details: Compound concentration 1000.0 nM
[29] = molecular target: Phosphatidylinositol 5-phosphate 4-kinase type-2 beta (Homo sapiens) (UniProt P78356); details: Compound concentration 1000.0 nM
[30] = molecular target: Protein kinase C eta type (Homo sapiens) (UniProt P24723); details: Compound concentration 1000.0 nM
[31] = molecular target: Serine/threonine-protein kinase D3 (Homo sapiens) (UniProt O94806); details: Compound concentration 1000.0 nM
[32] = molecular target: Interferon-induced, double-stranded RNA-activated protein kinase (Homo sapiens) (UniProt P19525); details: Compound concentration 1000.0 nM
[33] = molecular target: Dual serine/threonine and tyrosine protein kinase (Homo sapiens) (UniProt Q6XUX3); details: Compound concentration 1000.0 nM
[34] = molecular target: Dual specificity testis-specific protein kinase 1 (Homo sapiens) (UniProt Q15569); details: Compound concentration 1000.0 nM
[35] = molecular target: Serine/threonine-protein kinase tousled-like 2 (Homo sapiens) (UniProt Q86UE8); details: Compound concentration 1000.0 nM
[36] = molecular target: Wee1-like protein kinase (Homo sapiens) (UniProt P30291); details: Compound concentration 1000.0 nM
[37] = molecular target: 5-hydroxytryptamine receptor 2C (Homo sapiens) (UniProt P28335); details: Compound concentration 10.0 uM
[38] = molecular target: Alpha-2B adrenergic receptor (Homo sapiens) (UniProt P18089); details: Compound concentration 10.0 uM
[39] = molecular target: T1, Muscarinic acetylcholine receptor M2 (Homo sapiens) (UniProt P08172); details: Compound concentration 10.0 uM
T1 sequence (whole entry): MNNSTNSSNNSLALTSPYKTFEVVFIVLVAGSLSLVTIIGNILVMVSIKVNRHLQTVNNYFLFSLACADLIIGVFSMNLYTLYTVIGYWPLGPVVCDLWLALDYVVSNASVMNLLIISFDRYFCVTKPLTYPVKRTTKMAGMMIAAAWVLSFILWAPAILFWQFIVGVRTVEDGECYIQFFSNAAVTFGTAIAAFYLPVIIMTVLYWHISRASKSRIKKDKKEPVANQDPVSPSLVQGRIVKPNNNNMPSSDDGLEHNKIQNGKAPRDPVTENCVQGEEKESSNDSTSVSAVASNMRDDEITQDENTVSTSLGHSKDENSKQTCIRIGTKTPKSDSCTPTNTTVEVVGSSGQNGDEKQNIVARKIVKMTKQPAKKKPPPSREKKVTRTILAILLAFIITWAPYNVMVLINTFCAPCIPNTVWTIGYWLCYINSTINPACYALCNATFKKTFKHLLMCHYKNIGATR

Chain of Phosphatidylinositol 4,5-bisphosphate 3-kinase catalytic subunit alpha isoform (Homo sapiens), P42336 [H1047Y] (P42336 whole entry H1047Y, canonical isoform): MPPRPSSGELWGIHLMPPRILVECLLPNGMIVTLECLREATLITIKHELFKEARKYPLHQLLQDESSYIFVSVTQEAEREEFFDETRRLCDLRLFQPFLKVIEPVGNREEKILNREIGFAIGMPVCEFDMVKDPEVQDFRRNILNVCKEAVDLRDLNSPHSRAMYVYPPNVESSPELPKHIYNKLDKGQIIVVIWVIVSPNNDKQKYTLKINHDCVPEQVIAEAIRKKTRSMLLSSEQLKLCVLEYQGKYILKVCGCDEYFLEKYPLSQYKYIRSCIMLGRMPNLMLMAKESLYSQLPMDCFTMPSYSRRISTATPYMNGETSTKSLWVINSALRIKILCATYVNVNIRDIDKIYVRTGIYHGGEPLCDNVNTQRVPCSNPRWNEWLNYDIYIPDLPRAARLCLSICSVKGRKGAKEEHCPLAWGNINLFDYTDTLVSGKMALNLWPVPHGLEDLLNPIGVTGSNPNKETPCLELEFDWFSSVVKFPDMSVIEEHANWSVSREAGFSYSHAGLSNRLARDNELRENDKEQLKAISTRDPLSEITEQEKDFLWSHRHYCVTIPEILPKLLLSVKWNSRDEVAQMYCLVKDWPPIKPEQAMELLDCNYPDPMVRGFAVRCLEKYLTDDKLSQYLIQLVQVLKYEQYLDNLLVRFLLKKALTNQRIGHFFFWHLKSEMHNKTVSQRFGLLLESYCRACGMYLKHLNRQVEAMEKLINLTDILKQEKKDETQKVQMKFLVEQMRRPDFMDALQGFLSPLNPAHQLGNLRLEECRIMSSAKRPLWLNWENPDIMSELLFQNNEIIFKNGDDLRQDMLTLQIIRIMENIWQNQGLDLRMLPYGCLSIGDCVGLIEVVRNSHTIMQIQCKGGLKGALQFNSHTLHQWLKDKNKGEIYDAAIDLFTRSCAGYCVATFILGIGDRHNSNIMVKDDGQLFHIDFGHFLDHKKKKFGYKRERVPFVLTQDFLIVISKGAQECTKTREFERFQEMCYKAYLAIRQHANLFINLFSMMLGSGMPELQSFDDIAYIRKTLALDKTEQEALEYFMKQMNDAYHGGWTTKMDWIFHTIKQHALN
Chain of Calcium/calmodulin-dependent protein kinase type 1 (Homo sapiens) (Q14012 whole entry, looked up): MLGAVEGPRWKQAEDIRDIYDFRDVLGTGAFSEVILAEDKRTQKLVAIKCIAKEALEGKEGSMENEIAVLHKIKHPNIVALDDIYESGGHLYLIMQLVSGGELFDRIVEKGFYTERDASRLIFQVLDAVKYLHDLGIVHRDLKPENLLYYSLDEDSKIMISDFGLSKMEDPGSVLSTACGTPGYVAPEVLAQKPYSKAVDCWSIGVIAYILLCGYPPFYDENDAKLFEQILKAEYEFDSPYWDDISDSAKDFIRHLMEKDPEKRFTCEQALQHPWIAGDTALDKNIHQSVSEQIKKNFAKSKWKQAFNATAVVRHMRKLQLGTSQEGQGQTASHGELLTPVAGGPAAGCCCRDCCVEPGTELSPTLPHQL
Chain of Myosin-IIIb (Homo sapiens) (Q8WXR4 whole entry): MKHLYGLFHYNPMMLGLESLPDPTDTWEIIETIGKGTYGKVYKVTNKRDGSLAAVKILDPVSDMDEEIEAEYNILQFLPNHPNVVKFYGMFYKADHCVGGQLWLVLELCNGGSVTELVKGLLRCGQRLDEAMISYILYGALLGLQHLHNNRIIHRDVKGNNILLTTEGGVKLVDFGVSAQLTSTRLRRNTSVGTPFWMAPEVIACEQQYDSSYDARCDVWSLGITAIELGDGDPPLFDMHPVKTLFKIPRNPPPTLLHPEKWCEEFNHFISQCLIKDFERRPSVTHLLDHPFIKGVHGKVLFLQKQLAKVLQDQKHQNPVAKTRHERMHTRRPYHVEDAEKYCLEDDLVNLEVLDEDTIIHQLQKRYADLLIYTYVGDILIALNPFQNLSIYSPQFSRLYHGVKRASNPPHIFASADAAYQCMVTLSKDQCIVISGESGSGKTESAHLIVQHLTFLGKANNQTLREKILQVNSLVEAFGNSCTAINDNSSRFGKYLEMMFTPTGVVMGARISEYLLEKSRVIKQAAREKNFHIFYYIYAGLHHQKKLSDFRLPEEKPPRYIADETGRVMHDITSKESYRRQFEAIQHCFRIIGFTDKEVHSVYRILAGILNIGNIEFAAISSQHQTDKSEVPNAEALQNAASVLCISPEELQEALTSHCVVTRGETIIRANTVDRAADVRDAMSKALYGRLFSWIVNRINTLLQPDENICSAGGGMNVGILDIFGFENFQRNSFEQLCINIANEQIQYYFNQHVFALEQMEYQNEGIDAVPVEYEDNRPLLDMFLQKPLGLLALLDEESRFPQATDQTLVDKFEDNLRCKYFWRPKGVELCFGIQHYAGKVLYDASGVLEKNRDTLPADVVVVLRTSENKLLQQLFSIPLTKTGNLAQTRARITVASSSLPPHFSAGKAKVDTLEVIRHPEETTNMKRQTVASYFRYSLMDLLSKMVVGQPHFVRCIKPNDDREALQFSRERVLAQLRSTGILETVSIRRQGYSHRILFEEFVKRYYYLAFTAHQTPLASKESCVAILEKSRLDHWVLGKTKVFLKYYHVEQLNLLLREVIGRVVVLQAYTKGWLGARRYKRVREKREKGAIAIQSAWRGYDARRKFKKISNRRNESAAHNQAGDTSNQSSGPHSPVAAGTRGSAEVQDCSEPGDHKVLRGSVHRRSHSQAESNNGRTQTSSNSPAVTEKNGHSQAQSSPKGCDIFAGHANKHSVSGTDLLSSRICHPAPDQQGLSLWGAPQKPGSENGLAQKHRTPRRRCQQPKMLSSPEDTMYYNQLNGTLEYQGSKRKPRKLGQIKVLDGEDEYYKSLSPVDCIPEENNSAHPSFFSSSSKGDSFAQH
Chain of Dual specificity testis-specific protein kinase 1 (Homo sapiens) (Q15569 whole entry, looked up): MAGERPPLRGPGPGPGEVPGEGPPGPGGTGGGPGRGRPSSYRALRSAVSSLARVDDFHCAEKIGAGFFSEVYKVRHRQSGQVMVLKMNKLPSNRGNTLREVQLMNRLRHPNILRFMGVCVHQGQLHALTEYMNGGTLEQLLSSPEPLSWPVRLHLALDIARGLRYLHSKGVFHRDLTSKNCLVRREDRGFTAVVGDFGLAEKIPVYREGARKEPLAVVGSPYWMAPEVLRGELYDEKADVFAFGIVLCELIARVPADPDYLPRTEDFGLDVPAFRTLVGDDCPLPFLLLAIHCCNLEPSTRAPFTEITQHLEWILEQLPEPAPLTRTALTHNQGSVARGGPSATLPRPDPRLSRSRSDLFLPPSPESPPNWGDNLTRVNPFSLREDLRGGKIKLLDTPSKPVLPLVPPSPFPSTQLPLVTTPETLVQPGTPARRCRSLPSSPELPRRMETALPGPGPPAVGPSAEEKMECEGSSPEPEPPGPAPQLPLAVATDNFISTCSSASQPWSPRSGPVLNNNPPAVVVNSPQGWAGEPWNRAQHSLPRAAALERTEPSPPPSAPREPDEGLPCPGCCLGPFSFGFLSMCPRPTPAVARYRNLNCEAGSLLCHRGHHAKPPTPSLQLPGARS
Chain of Mitogen-activated protein kinase kinase kinase 11 (Homo sapiens) (Q16584 whole entry, looked up): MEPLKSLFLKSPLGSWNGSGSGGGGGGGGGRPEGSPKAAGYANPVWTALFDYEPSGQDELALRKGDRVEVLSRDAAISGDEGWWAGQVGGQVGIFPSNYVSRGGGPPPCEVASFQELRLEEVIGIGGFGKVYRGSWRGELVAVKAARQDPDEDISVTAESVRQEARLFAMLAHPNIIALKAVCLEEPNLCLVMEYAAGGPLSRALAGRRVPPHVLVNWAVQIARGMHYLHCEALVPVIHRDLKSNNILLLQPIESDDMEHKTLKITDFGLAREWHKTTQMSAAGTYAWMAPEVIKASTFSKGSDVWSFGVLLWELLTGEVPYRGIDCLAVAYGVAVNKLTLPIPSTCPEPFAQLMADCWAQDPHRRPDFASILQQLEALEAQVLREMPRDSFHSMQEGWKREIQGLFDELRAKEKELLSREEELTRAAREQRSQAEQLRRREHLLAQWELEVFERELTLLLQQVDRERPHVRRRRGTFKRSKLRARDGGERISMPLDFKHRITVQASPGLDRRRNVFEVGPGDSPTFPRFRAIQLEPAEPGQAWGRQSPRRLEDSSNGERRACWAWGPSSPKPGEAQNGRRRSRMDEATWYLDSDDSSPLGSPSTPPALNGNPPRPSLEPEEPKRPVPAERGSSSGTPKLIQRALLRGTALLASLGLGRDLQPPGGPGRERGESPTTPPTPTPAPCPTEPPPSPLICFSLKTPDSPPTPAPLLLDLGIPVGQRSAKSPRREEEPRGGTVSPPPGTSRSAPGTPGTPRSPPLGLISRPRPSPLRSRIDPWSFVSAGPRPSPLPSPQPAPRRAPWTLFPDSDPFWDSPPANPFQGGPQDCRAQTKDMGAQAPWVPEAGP
Chain of Dual specificity mitogen-activated protein kinase kinase 4 (Homo sapiens) (P45985 whole entry): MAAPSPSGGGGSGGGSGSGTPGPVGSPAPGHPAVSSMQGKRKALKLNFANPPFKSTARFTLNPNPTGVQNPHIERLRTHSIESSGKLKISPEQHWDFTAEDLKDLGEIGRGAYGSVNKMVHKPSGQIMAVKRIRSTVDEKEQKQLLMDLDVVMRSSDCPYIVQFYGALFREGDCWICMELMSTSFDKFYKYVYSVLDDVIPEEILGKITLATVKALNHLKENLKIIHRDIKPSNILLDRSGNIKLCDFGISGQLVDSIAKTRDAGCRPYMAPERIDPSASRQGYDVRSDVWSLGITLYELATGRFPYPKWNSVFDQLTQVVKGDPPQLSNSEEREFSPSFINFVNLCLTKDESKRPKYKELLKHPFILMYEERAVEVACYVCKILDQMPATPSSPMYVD
Chain of Aurora kinase A (Homo sapiens) (O14965 whole entry): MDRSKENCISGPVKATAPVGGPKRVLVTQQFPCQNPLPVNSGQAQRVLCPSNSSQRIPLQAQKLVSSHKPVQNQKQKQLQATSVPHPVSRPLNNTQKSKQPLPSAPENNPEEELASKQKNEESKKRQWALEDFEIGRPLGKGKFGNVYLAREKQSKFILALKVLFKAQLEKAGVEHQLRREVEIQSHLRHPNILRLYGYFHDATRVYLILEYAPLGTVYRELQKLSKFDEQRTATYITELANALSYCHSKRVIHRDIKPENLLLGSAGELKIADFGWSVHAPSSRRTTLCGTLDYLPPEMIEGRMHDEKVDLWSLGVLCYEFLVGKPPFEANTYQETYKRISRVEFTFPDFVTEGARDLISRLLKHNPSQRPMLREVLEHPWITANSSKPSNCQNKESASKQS

SMILES | IC50 [1] | residual activity [2] [%] | residual activity [3] [%] | residual activity [4] [%] | residual activity [5] [%] | residual activity [6] [%] | residual activity [7] [%] | residual activity [8] [%] | residual activity [9] [%] | residual activity [10] [%] | residual activity [11] [%] | residual activity [12] [%] | residual activity [13] [%] | residual activity [14] [%] | residual activity [15] [%] | residual activity [16] [%] | residual activity [17] [%] | residual activity [18] [%] | residual activity [19] [%] | residual activity [20] [%] | other results
CC(=O)N1CCC(c2ccc(C(=O)NC3=NCCN3)cc2C(F)(F)F)CC1 [BI 0054] | > 10 µM (not active) | 77 | 90 | 83 | 100 | 100 | 100 | 100 | 94 | 100 | 100 | 100 | 89 | 93 | 78 | 100 | 88 | 100 | 87 | 100 | residual activity [21]: 100%; residual activity [22]: 100%; residual activity [23]: 55%; residual activity [24]: 100%; residual activity [25]: 84%; residual activity [26]: 94%; residual activity [27]: 100%; residual activity [28]: 100%; residual activity [29]: 75%; residual activity [30]: 100%; residual activity [31]: 100%; residual activity [32]: 100%; residual activity [33]: 74%; residual activity [34]: 72%; residual activity [35]: 100%; residual activity [36]: 100%; inhibition [37]: -2.86%; inhibition [38]: 1.01%; inhibition [39]: -0.799%
CC(=O)N1CCC(c2ccc(C(=O)NC(=N)N)cc2C(F)(F)F)CC1 [BI 9627] | > 16 µM (not active) | 92 | 92 | 89 | 87 | 100 | 85 | 100 | 100 | 100 | 100 | 96 | 100 | 96 | 100 | 100 | 100 | 100 | 49 | 95 | residual activity [21]: 100%; residual activity [22]: 100%; residual activity [23]: 77%; residual activity [24]: 100%; residual activity [25]: 91%; residual activity [26]: 100%; residual activity [27]: 100%; residual activity [28]: 100%; residual activity [29]: 77%; residual activity [30]: 100%; residual activity [31]: 80%; residual activity [32]: 100%; residual activity [33]: 94%; residual activity [34]: 95%; residual activity [35]: 100%; residual activity [36]: 100%; inhibition [37]: 2.59%; inhibition [38]: 6.29%; inhibition [39]: 23.5%
